According to ChEMBL document CHEMBL2021819, “CoA Adducts of 4-Oxo-4-Phenylbut-2-enoates: Inhibitors of MenB from the M. tuberculosis Menaquinone Biosynthesis Pathway” (ACS Med Chem Lett, 2011):
In brackets after ≈: the same amount, converted by molar mass. Activity calls are given as the source filed them. No cut-off for these calls is given here.

Legend:
[1] = target: T1, 1,4-dihydroxy-2-naphthoyl-CoA synthase (Mycobacterium tuberculosis, UniProt P9WNP5); assay: Inhibition of Mycobacterium tuberculosis MenB expressed in Escherichia coli BL21 (DE3) assessed as formation of DHNA-CoA from OSB-CoA by enzyme coupled-assay in presence of Escherichia coli MenE
T1 sequence (P9WNP5 whole entry): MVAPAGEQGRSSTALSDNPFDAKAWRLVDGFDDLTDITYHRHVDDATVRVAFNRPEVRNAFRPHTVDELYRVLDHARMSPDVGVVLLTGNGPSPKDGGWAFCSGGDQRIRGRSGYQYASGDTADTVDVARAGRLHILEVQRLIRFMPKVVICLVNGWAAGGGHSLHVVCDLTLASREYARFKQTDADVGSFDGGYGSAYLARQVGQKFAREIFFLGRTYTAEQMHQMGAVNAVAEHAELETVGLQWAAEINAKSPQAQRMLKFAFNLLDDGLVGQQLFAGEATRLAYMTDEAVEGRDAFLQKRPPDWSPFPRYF

[2] = test system: Mycobacterium tuberculosis; assay: Antimycobacterial activity against Mycobacterium tuberculosis H37Rv after 5 to 7 days under […] condition by microplate dilution assay; assay type: functional
[3] = Half life of the compound at pH 7.4; assay type: physicochemical
[4] = target: T1, 1,4-dihydroxy-2-naphthoyl-CoA synthase; assay: Inhibition of Mycobacterium tuberculosis MenB expressed in Escherichia coli BL21 (DE3) assessed as formation of DHNA-CoA from OSB-CoA by enzyme coupled-assay in presence of Escherichia coli MenE preincubated for 1 hr
[5] = target: T1, 1,4-dihydroxy-2-naphthoyl-CoA synthase; assay: Non-competitive inhibition of Mycobacterium tuberculosis MenB expressed in Escherichia coli BL21 (DE3) by Lineweaver-Burk plot analysis
[6] = target: T1, 1,4-dihydroxy-2-naphthoyl-CoA synthase; assay: Inhibition of Mycobacterium tuberculosis MenB expressed in Escherichia coli BL21 (DE3) by Lineweaver-Burk plot analysis
[7] = Chemical stability of the compound at pH 7.4; assay type: physicochemical; conditions: buffer
[8] = target: T2, 1,4-dihydroxy-2-naphthoyl-CoA synthase (Mycobacterium tuberculosis) (UniProt P9WNP5); assay: Inhibition of Mycobacterium tuberculosis MenB expressed in Escherichia coli BL21 (DE3) assessed as formation of DHNA-CoA from OSB-CoA at 50 uM by enzyme coupled-assay in presence of Escherichia coli MenE
T2 sequence (whole entry): T1 sequence (P9WNP5 whole entry)

[9] = test system: Mycobacterium tuberculosis; assay: Antibacterial activity against non-replicating Mycobacterium tuberculosis H37Rv by low oxygen recovery assay; assay type: functional
[10] = Selectivity index, ratio of cytotoxicity against african green monkey Vero cells to MIC for Mycobacterium tuberculosis H37Rv; assay type: functional

## CC(C)(COP(=O)(O)OP(=O)(O)OC[C@H]1O[C@@H](n2cnc3c(N)ncnc32)[C@H](O)[C@@H]1OP(=O)(O)O)[C@@H](O)C(=O)NCCC(=O)NCCSCCC(=O)c1ccc(Cl)cc1Cl
[1]
  IC50: > 400 µM

## C[C@H](NC(CC(=O)c1ccccc1)C(=O)O)c1ccccc1 (stereo partly drawn)
[2]
  MIC: 6.25 µg/mL (≈ 21 µM)
[1]
  IC50: > 120 µM
[3]
  half-life: 11.6 h
[4]
  IC50: 52.7 µM

## CC(C)(COP(=O)(O)OP(=O)(O)OC[C@H]1O[C@@H](n2cnc3c(N)ncnc32)[C@H](O)[C@@H]1OP(=O)(O)O)[C@@H](O)C(=O)NCCC(=O)NCCSC(CC(=O)c1ccc(Cl)cc1Cl)C(=O)O (stereo partly drawn)
[5]
  Ki: 0.286 µM
[1]
  IC50: 0.106 µM
[6]
  Ki: 0.049 µM

## [2H]C([2H])(C(=O)c1ccccc1Cl)C(N[C@@H](C)c1ccccc1)C(=O)O (stereo partly drawn)
[7]
  Stability: Stable

## CC(C)(COP(=O)(O)OP(=O)(O)OC[C@H]1O[C@@H](n2cnc3c(N)ncnc32)[C@H](O)[C@@H]1OP(=O)(O)O)[C@@H](O)C(=O)NCCC(=O)NCCSC(CC(=O)c1ccccc1F)C(=O)O (stereo partly drawn)
[1]
  IC50: 0.204 µM

## CC(C(=O)c1ccc(Cl)cc1)C(N[C@@H](C)c1ccccc1)C(=O)O (stereo partly drawn)
[8]
  inhibition: Active
[7]
  Stability: Stable

## O=C(CC1N=C(c2ccccc2)OC1=O)c1ccc(Cl)cc1 (stereo not drawn)
[8]
  inhibition: inactive
[7]
  Stability: Stable

## C[C@H](NC(CC(O)c1ccc(Cl)cc1)C(=O)O)c1ccccc1 (stereo partly drawn)
[8]
  inhibition: inactive
[7]
  Stability: Stable

## COc1ccccc1C(=O)CC(SCCNC(=O)CCNC(=O)[C@H](O)C(C)(C)COP(=O)(O)OP(=O)(O)OC[C@H]1O[C@@H](n2cnc3c(N)ncnc32)[C@H](O)[C@@H]1OP(=O)(O)O)C(=O)O (stereo partly drawn)
[1]
  IC50: 12.1 µM

## COC(=O)/C=C/C(=O)c1ccc(Cl)cc1
[2]
  MIC: 0.64 µg/mL (≈ 2.85 µM)
[9]
  MIC: 1.5 µg/mL (≈ 6.68 µM)
[10]
  Selectivity Index: >20

## CC(C)(COP(=O)(O)OP(=O)(O)OC[C@H]1O[C@@H](n2cnc3c(N)ncnc32)[C@H](O)[C@@H]1OP(=O)(O)O)[C@@H](O)C(=O)NCCC(=O)NCCSC(CC(=O)c1ccccc1Br)C(=O)O (stereo partly drawn)
[1]
  IC50: 0.135 µM

## CC(C)(COP(=O)(O)OP(=O)(O)OC[C@H]1O[C@@H](n2cnc3c(N)ncnc32)[C@H](O)[C@@H]1OP(=O)(O)O)[C@@H](O)C(=O)NCCC(=O)NCCSC(CC(=O)c1ccccc1I)C(=O)O (stereo partly drawn)
[1]
  IC50: 0.421 µM

## C[C@H](NC(CC(=O)c1ccccc1C(F)(F)F)C(=O)O)c1ccccc1 (stereo partly drawn)
[2]
  MIC: 25 µg/mL (≈ 68.4 µM)
[1]
  IC50: > 120 µM
[3]
  half-life: 0.2 h
[4]
  IC50: 3.2 µM

## C[C@H](NC(C(=O)O)C(F)(F)C(=O)c1ccc(Cl)cc1)c1ccccc1 (stereo partly drawn)
[8]
  inhibition: inactive
[7]
  Stability: Stable

## C[C@H](SC(CC(=O)c1ccc(Cl)cc1)C(=O)O)c1ccccc1 (stereo partly drawn)
[8]
  inhibition: inactive
[7]
  Stability: Stable

## CC(C)(COP(=O)(O)OP(=O)(O)OC[C@H]1O[C@@H](n2cnc3c(N)ncnc32)[C@H](O)[C@@H]1OP(=O)(O)O)[C@@H](O)C(=O)NCCC(=O)NCCSC(CC(=O)c1ccccc1[N+](=O)[O-])C(=O)O (stereo partly drawn)
[1]
  IC50: 0.154 µM

## CC(C)(COP(=O)(O)OP(=O)(O)OC[C@H]1O[C@@H](n2cnc3c(N)ncnc32)[C@H](O)[C@@H]1OP(=O)(O)O)[C@@H](O)C(=O)NCCC(=O)NCCSC(=O)CCC(=O)c1ccc(Cl)cc1Cl
[1]
  IC50: 2.2 µM

## C[C@H](NC(CC(=O)c1ccccc1Cl)C(=O)O)c1ccccc1 (stereo partly drawn)
[2]
  MIC: 50 µg/mL (≈ 151 µM)
[1]
  IC50: > 120 µM
[3]
  half-life: 0.4 h
[4]
  IC50: 8.4 µM

## CC(C)(COP(=O)(O)OP(=O)(O)OC[C@H]1O[C@@H](n2cnc3c(N)ncnc32)[C@H](O)[C@@H]1OP(=O)(O)O)[C@@H](O)C(=O)NCCC(=O)NCCSC(CC(=O)c1ccccc1Cl)C(=O)O (stereo partly drawn)
[5]
  Ki: 0.792 µM
[1]
  IC50: 0.103 µM
[6]
  Ki: 0.097 µM

## COC(=O)/C=C/C(=O)c1ccc(F)cc1
[2]
  MIC: 0.64 µg/mL (≈ 3.07 µM)
[10]
  Selectivity Index: >20

## COc1ccc(C(=O)CC(SCCNC(=O)CCNC(=O)[C@H](O)C(C)(C)COP(=O)(O)OP(=O)(O)OC[C@H]2O[C@@H](n3cnc4c(N)ncnc43)[C@H](O)[C@@H]2OP(=O)(O)O)C(=O)O)cc1 (stereo partly drawn)
[1]
  IC50: 33.5 µM

## CC(C)(COP(=O)(O)OP(=O)(O)OC[C@H]1O[C@@H](n2cnc3c(N)ncnc32)[C@H](O)[C@@H]1OP(=O)(O)O)[C@@H](O)C(=O)NCCC(=O)NCCSC(CC(=O)c1cccc(Cl)c1)C(=O)O (stereo partly drawn)
[1]
  IC50: 14.1 µM

## CC(C)(COP(=O)(O)OP(=O)(O)OC[C@H]1O[C@@H](n2cnc3c(N)ncnc32)[C@H](O)[C@@H]1OP(=O)(O)O)[C@@H](O)C(=O)NCCC(=O)NCCSC(CC(=O)c1ccc(Cl)cc1)C(=O)O (stereo partly drawn)
[5]
  Ki: 1.63 µM
[1]
  IC50: 0.468 µM
[6]
  Ki: 0.35 µM

## O=C(O)/C=C/C(=O)c1ccc(Cl)cc1
[2]
  MIC: 25 µg/mL (≈ 119 µM)

## C[C@H](NC(CC(=O)c1ccc(Cl)cc1)C(=O)O)c1ccccc1 (stereo partly drawn)
[2]
  MIC: 50 µg/mL (≈ 151 µM)
[1]
  IC50: > 120 µM
[3]
  half-life: 6.8 h
[4]
  IC50: 11.7 µM

## COc1ccccc1C(=O)CC(N[C@@H](C)c1ccccc1)C(=O)O (stereo partly drawn)
[2]
  MIC: 12.5 µg/mL (≈ 38.2 µM)
[1]
  IC50: > 120 µM
[3]
  half-life: 11.6 h
[4]
  IC50: > 120 µM

## O=C(CC(NC(=O)c1ccccc1)C(=O)O)c1ccc(Cl)cc1 (stereo not drawn)
[8]
  inhibition: inactive
[7]
  Stability: Stable

## C[C@H](NC(CC(=O)c1ccc(F)cc1)C(=O)O)c1ccccc1 (stereo partly drawn)
[2]
  MIC: 12.5 µg/mL (≈ 39.6 µM)
[1]
  IC50: > 120 µM
[3]
  half-life: 12.2 h
[4]
  IC50: 14.4 µM

## C[C@H](NC(C(=O)O)C(C)(C)C(=O)c1ccccc1)c1ccccc1 (stereo partly drawn)
[8]
  inhibition: inactive
[7]
  Stability: Stable
